Measurements published in patent publication US7473790B2 (Pfizer Inc., priority 2003, dated 2009).

What follows are compounds tested against T1, HCV polymerase (Hepatitis C virus genotype 1b, UniProt P26663) (assay: HCV polymerase primer/template-directed transcription assay (32P-GTP incorporation, filter binding)). Details: @ 20 uM compound; given where IC50 was impractical to calculate; read-out: percent inhibition.
T1 construct: 2.5 pmoles (0.15 μg) HCV polymerase protein in a final volume of 75 μL
T1 sequence (P26663 2420-3010): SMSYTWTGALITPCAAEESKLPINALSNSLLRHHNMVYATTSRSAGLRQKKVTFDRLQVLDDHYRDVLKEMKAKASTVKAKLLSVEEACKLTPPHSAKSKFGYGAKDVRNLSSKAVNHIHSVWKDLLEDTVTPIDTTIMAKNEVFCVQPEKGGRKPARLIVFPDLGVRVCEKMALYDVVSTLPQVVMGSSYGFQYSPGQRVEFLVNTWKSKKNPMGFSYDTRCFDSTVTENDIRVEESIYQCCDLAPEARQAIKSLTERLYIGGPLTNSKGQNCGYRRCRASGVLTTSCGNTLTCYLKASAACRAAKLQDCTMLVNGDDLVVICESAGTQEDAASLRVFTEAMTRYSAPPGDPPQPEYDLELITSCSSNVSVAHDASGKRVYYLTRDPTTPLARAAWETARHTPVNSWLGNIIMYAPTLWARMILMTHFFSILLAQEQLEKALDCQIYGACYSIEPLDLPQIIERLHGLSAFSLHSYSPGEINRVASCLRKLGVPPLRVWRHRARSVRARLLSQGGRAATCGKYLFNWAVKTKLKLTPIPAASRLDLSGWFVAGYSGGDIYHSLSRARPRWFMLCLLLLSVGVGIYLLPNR
Format: biochemical
Summary of the method: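 Recombinant genotype 1b polymerase (30 nM) extended biotin-dG12 primer on poly(rC)300 template with 1 μM GTP plus α-32P-GTP, pH 7.2, 10 mM MgCl2, 30 min at 30° C, 1% DMSO final. Products captured on DE filters and counted. IC50 fitted from triplicate cpm, with a tight-binding correction applied below 200 nM.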
In the case of COC(=O)Cc1cccc(CCC2(C3CCCC3)CC(=O)CC(=O)O2)c1 (centres unmarked) [A(67), {3-[2-(2-Cyclopentyl-4,6-dioxo-tetrahydro-pyran-2-yl)-ethyl]-phenyl}-acetic acid methyl ester], the inhibition at 20 µM is reported as 24%.

Same assay, conditions: @ 50 uM compound; given where IC50 was impractical to calculate; read-out: percent inhibition
O=C1CC(=O)OC(CCN2CCCC2=O)(C2CCCC2)C1 (centres unmarked) [A(14), 6-Cyclopentyl-6-[2-(2-oxo-pyrrolidin-1-yl)-ethyl]-dihydro-pyran-2,4-dione] was tested, and the inhibition at 50 µM was 35%.
With O=C1CC(=O)OC(CSCc2ccco2)(C2CCCC2)C1 (centres unmarked) [I(2), 6-cyclopentyl-6-{[(2-furylmethyl)thio]methyl}dihydro-2H-pyran-2,4(3H)-dione] the inhibition at 50 µM was 22%.
With CCC1(CCc2ccc(OC)cc2)CC(=O)CC(=O)O1 (centres unmarked) [A(23), 6-Ethyl-6-[2-(4-methoxy-phenyl)-ethyl]-dihydro-pyran-2,4-dione] the inhibition at 50 µM was 1%.

Same assay, conditions: recombinant HCV polymerase; 30 minutes at 30° C.; concentration giving 50% inhibition of polymerase-directed transcription; read-out: IC50
COc1ccc(CCC2(C3CCCC3)CC(O)=C(Cc3ncc[nH]3)C(=O)O2)cc1Cl (centres unmarked) [B(30), 6-[2-(3-Chloro-4-methoxy-phenyl)-ethyl]-6-cyclopentyl-4-hydroxy-3-(1H-imidazol-2-ylmethyl)-5,6-dihydro-pyran-2-one] gave an IC50 of 2000 nM.
With COc1ccc(CCC2(C3CCCC3)CC(O)=C(Sc3nncn3C)C(=O)O2)cc1Cl (centres unmarked) [C(102), 6-[2-(3-chloro-4-methoxyphenyl)ethyl]-6-cyclopentyl-4-hydroxy-3-[(4-methyl-4H-1,2,4-triazol-3-yl)thio]-5,6-dihydro-2H-pyran-2-one] the IC50 was 38 nM.
Compound N#CC1(c2ccc(CCC3(C4CCCC4)CC(=O)CC(=O)O3)cc2)CC1 (centres unmarked) [A(40), 1-{4-[2-(2-Cyclopentyl-4,6-dioxo-tetrahydro-pyran-2-yl)-ethyl]-phenyl}-cyclopropanecarbonitrile] has an IC50 of 2000 nM.
Cc1cc(C)n2nc(CC3=C(O)CC(COc4ccc(C(C)(C)C#N)c(F)c4)(C4CCCC4)OC3=O)nc2n1 (centres unmarked) [C(112), 2-{4-[2-Cyclopentyl-5-(5,7-dimethyl-[1,2,4]triazolo[1,5-a]pyrimidin-2-ylmethyl)-4-hydroxy-6-oxo-3,6-dihydro-2H-pyran-2-ylmethoxy]-2-fluoro-phenyl}-2-methyl-propionitrile] gave an IC50 of 64 nM.
Compound O=C1OC(CCCCC2CCCCC2)(C2CCCC2)CC(O)=C1Sc1nnc(-c2ccncc2)[nH]1 (centres unmarked) [C(32), 6-(4-Cyclohexyl-butyl)-6-cyclopentyl-4-hydroxy-3-(5-pyridin-4-yl-4H-[1,2,4]triazol-3-ylsulfanyl)-5,6-dihydro-pyran-2-one] has an IC50 of 270 nM.
CC(C)(C#N)c1ccc(CCC2(C3CCCC3)CC(O)=C(Cc3nc4ncc(Cl)cn4n3)C(=O)O2)cc1Cl (single isomer, unassigned) [A(205), 2-(2-Chloro-4-{2-[5-(6-chloro-[1,2,4]triazolo[1,5-a]pyrimidin-2-ylmethyl)-2-cyclopentyl-4-hydroxy-6-oxo-3,6-dihydro-2H-pyran-2-yl]-ethyl}-phenyl)-2-methyl-propionitrile] was tested, and the IC50 was 1 nM.
COc1cc(OC)c(CCC2(C3CCCC3)CC(O)=C(Sc3nnc(-c4cccnc4)n3C)C(=O)O2)cc1Cl (centres unmarked) [C(85), 6-[-(5-chloro-2,4-dimethoxyphenyl)ethyl]-6-cyclopentyl-4-hydroxy-3-[(4-methyl-5-pyridin-3-yl-4H-1,2,4-triazol-3-yl)thio]-5,6-dihydro-2H-pyran-2-one] showed an IC50 of 35 nM.
For Cc1noc(C)c1-c1ccc(CCC2(C3CCCC3)CC(O)=C(Sc3nc4cc(Cl)ccc4n3C)C(=O)O2)cc1 (centres unmarked) [C(14), 3-(5-Chloro-1-methyl-1H-benzoimidazol-2-ylsulfanyl)-6-cyclopentyl-6-{2-[4-(3,5-dimethyl-isoxazol-4-yl)-phenyl]-ethyl}-4-hydroxy-5,6-dihydro-pyran-2-one], the IC50 was 14 nM.
COC(=O)c1nnc(SC2=C(O)CC(CCc3cc(Cl)c(OC)cc3OC)(C3CCCC3)OC2=O)n1C (centres unmarked) [C(89), methyl 5-({6-[2-(5-chloro-2,4-dimethoxyphenyl)ethyl]-6-cyclopentyl-4-hydroxy-2-oxo-5,6-dihydro-2H-pyran-3-yl}thio)-4-methyl-4H-1,2,4-triazole-3-carboxylate] was tested, and the IC50 was 20 nM.
With COc1ccc(CCC2(C3CCCC3)CC(O)=C(Sc3nc4cc(C(F)(F)F)cc(Cl)c4[nH]3)C(=O)O2)cc1Cl (centres unmarked) [C(62), 6-[2-(3-chloro-4-methoxyphenyl)ethyl]-3-{[7-chloro-5-(trifluoromethyl)-1H-benzimidazol-2-yl]thio}-6-cyclopentyl-4-hydroxy-5,6-dihydro-2H-pyran-2-one] the IC50 was 500 nM.
Cc1cc(C)n2nc(CC3=C(O)CC(CCc4ccc(OC(C)C)c(Cl)c4)(C4CCCC4)OC3=O)nc2n1 (centres unmarked) [B(31), 6-[2-(3-Chloro-4-isopropoxy-phenyl)-ethyl]-6-cyclopentyl-3-(5,7-dimethyl-[1,2,4]triazolo[1,5-a]pyrimidin-2-ylmethyl)-4-hydroxy-5,6-dihydro-pyran-2-one] was tested, and the IC50 was 3 nM.
Cc1nnc(SC2=C(O)CC(CCc3ccc(OC(C)C)c(F)c3)(C3CCCC3)OC2=O)s1 (centres unmarked) [C(09), 6-Cyclopentyl-6-[2-(3-fluoro-4-isopropoxy-phenyl)-ethyl]-4-hydroxy-3-(5-methyl-[1,3,4]thiadiazol-2-ylsulfanyl)-5,6-dihydro-pyran-2-one] was tested, and the IC50 was 326 nM.
In the case of CC(C)(CNC(=O)c1cnc(O)cn1)c1cccc(CCC2(C3CCCC3)CC(=O)CC(=O)O2)c1 (centres unmarked) [A(74), 5-Hydroxy-pyrazine-2-carboxylic acid (2-{3-[2-(2-cyclopentyl-4,6-dioxo-tetrahydro-pyran-2-yl)-ethyl]-phenyl}-2-methyl-propyl)-amide], the IC50 is reported as 1200 nM.
Work on CCc1cc(CCC2(C3CCCC3)CC(O)=C(Cc3nc4ncc(Br)cn4n3)C(=O)O2)ccc1O (centres unmarked) [A(230), 3-[(6-bromo[1,2,4]triazolo[1,5-a]pyrimidin-2-yl)methyl]-6-cyclopentyl-6-[2-(3-ethyl-4-hydroxyphenyl)ethyl]-4-hydroxy-5,6-dihydro-2H-pyran-2-one] yielded an IC50 of 11 nM.
CNC(=O)c1ccc(CCC2(C3CCCC3)CC(=O)CC(=O)O2)cc1F (centres unmarked) [A(11), 4-[2-(2-Cyclopentyl-4,6-dioxo-tetrahydro-pyran-2-yl)-ethyl]-2-fluoro-N-methyl-benzamide] showed an IC50 of 16700 nM.
For COc1ccc(CCC2(C3CCCC3)CC(O)=C(Sc3nc4cnccc4[nH]3)C(=O)O2)cc1Cl (centres unmarked) [C(46), 6-[2-(3-chloro-4-methoxyphenyl)ethyl]-6-cyclopentyl-4-hydroxy-3-(1H-imidazo[4,5-c]pyridin-2-ylthio)-5,6-dihydro-2H-pyran-2-one], the IC50 was 37 nM.
O=C1CC(=O)OC(CCc2ccc(O)c(F)c2)(C2CCCC2)C1 (centres unmarked) [A(129), 6-Cyclopentyl-6-[2-(3-fluoro-4-hydroxy-phenyl)-ethyl]-dihydro-pyran-2,4-dione] showed an IC50 of 8900 nM.
CC(C)(C#N)c1c(F)cc(CCC2(C3CCCC3)CC(O)=C(Cc3nc4ncc(Cl)cn4n3)C(=O)O2)cc1F (centres unmarked) [A(142)] gave an IC50 of 4 nM.
CCC(C#N)(CC)c1ccc(CCC2(C3CCCC3)CC(=O)CC(=O)O2)cc1F (centres unmarked) [A(91), 2-{4-[2-(2-Cyclopentyl-4,6-dioxo-tetrahydro-pyran-2-yl)-ethyl]-2-fluoro-phenyl}-2-ethyl-butyronitrile] was tested, and the IC50 was 500 nM.
COc1ccc(CCC2(C3CCCC3)CC(O)=C(Sc3nc4cc(Cl)ccc4n3C)C(=O)O2)cc1Cl (centres unmarked) [C(57), 6-[2-(3-chloro-4-methoxyphenyl)ethyl]-3-[(5-chloro-1-methyl-1H-benzimidazol-2-yl)thio]-6-cyclopentyl-4-hydroxy-5,6-dihydro-2H-pyran-2-one] gave an IC50 of 2 nM.
With COc1cc(OC)c(CCC2(C3CCCC3)CC(O)=C(Cc3nc4nc(C)cc(C)n4n3)C(=O)O2)cc1Cl (centres unmarked) [B(52), 6-[2-(5-chloro-2,4-dimethoxyphenyl)ethyl]-6-cyclopentyl-3-[(5,7-dimethyl[1,2,4]triazolo[1,5-a]pyrimidin-2-yl)methyl]dihydro-2H-pyran-2,4(3H)-dione] the IC50 was 170 nM.
Compound COc1ccc(CCC2(C3CCCC3)CC(=O)C(Cc3cn4cccnc4n3)C(=O)O2)cc1Cl (centres unmarked) [B(83), 6-[2-(3-chloro-4-methoxyphenyl)ethyl]-6-cyclopentyl-3-(imidazo[1,2-a]pyrimidin-2-ylmethyl)dihydro-2H-pyran-2,4(3H)-dione] has an IC50 of 360 nM.
In the case of COc1ccc(CCC2(C3CCCC3)CC(=O)C(Cc3nc4ccccc4n3C)C(=O)O2)cc1Cl (centres unmarked) [B(84), 6-[2-(3-chloro-4-methoxyphenyl)ethyl]-6-cyclopentyl-3-[(1-methyl-1H-benzimidazol-2-yl)methyl]dihydro-2H-pyran-2,4(3H)-dione], the IC50 is reported as 110 nM.
Compound CC(C)Oc1ccc(CCC2(C3CCCC3)CC(O)=C(Sc3nnc(O)n3C(C)C)C(=O)O2)cc1F (centres unmarked) [C(12), 6-Cyclopentyl-6-[2-(3-fluoro-4-isopropoxy-phenyl)-ethyl]-4-hydroxy-3-(5-hydroxy-4-isopropyl-4H-[1,2,4]triazol-3-ylsulfanyl)-5,6-dihydro-pyran-2-one] has an IC50 of 82 nM.
Work on COc1cc(OC)c(CCC2(C3CCCC3)CC(O)=C(Sc3nc4cc(Cl)ccc4n3C)C(=O)O2)cc1Cl (centres unmarked) [C(63), 6-[2-(5-chloro-2,4-dimethoxyphenyl)ethyl]-3-[(5-chloro-1-methyl-1H-benzimidazol-2-yl)thio]-6-cyclopentyl-4-hydroxy-5,6-dihydro-2H-pyran-2-one] yielded an IC50 of 8 nM.
Work on CCc1cc(CCC2(C3CCCC3)CC(O)=C(Cc3nc[nH]c3C)C(=O)O2)c(OC)cc1O (centres unmarked) [A(156), 6-Cyclopentyl-6-[2-(5-ethyl-4-hydroxy-2-methoxy-phenyl)-ethyl]-4-hydroxy-3-(5-methyl-1H-imidazol-4-ylmethyl)-5,6-dihydro-pyran-2-one] yielded an IC50 of 21 nM.
Compound O=C1CC(=O)OC(CCc2ccc3ccccc3c2)(C2CCCC2)C1 (centres unmarked) [A(47), 6-Cyclopentyl-6-(2-naphthalen-2-yl-ethyl)-dihydro-pyran-2,4-dione] has an IC50 of 7000 nM.
In the case of Cc1cc(C(=O)N[C@H](C)c2ccc(CCC3(C4CCCC4)CC(=O)CC(=O)O3)cc2)no1 (some centres unmarked) [A(43), 5-Methyl-isoxazole-3-carboxylic acid (1-{4-[2-(2-cyclopentyl-4,6-dioxo-tetrahydro-pyran-2-yl)-ethyl]-phenyl}-ethyl)-amide], the IC50 is reported as 20000 nM.
